Laboratory results as given in article PMC9428149, “Tackling recalcitrant Pseudomonas aeruginosa infections in critical illness via anti-virulence monotherapy” (Nature Communications, 2022).
In brackets after ≈: the same amount, converted by molar mass. Several values for one entry are separate records, joined by “and”; a condition that tells them apart may be missing. Equal values may be shown once. Read-outs that look alike come from different tables or passages of the source.

How the values were obtained:
[1] = system: MvfR-regulated small molecules in PA14; test: Production of HAQs, 2-AA, DHQ and AA in PA14 cultures (LC-MS); conditions: for 2-AA / DHQ / HHQ / HQNO / PQS: Figure 5a; for 2-AA / DHQ / HHQ / HQNO / PQS / AA: replicates; for AA: Figure 5b; for activity at 50 µM / IC50 / inhibition at 50 µM: Pseudomonas aeruginosa
PA14 AT/P cells = test: AT/P cells formation assay in PA14; assay type: cell-based, Pseudomonas aeruginosa; conditions: Pseudomonas aeruginosa, PA14, 24 h, read-out: inhibition of AT/P cells formation
[2] = system: PA14 isogenic mutant ΔmvfR AT/P cells; test: AT/P cell formation in ΔmvfR mutant (off-target); conditions: Pseudomonas aeruginosa, PA14, 24 h, read-out: AT/P cell formation, ΔmvfR + compound; PA14 about 100; single replicates (Figure 4b)
Experimental: Cells were grown in the presence of 10 μg mL^−1 meropenem, with or without 10 µM of the compounds for 24 h. Values were normalized to cells grown for 4 h in the absence of antibiotics and compounds. The ∆mvfR cells grown with antibiotics and vehicles were considered control, and the percentage values were calculated compared to control. c Biofilm formation of mutant ∆mvfR cells with or without compound. […] The number of biological replicates for each compound and strain is depicted in the graph. The error bars denote ±SEM.
The AT/P cell formation assay was performed according to the method previously described in Starkey et al., 2014 (persister cell assay). The over-day culture was incubated at 37 °C with shaking at 200 rpm until the culture OD600nm was 3.0. The culture was then diluted at 1:100 and grown in the same conditions for 4 h. After 4 h, 200 µL were collected, and serial dilutions were plated on LB agar plates for CFU quantification (as normalizers). The remainder of the culture was treated with meropenem to a final concentration of 100 × MIC (Minimum Inhibitory Concentration; 10 mg L^−1) and compounds at a final concentration of 10 µM. After 24 h, culture aliquots were 10-fold serially diluted in LB broth and plated on LB agar for CFU quantification. The AT/P fraction was determined as the normalizers (pre-antibiotic) ratio divided by the AT/P fraction (24 h post-antibiotic)[22].

MvfR protein (MvfRC87) = target: T1, MvfR protein (MvfRC87) (Pseudomonas aeruginosa, UniProt Q9I4X0); assay type: binding; conditions: SPR
T1 construct: The MvfRC87 protein purified as in Xiao et. al., 2006; made in house
T1 sequence (Q9I4X0 87-332): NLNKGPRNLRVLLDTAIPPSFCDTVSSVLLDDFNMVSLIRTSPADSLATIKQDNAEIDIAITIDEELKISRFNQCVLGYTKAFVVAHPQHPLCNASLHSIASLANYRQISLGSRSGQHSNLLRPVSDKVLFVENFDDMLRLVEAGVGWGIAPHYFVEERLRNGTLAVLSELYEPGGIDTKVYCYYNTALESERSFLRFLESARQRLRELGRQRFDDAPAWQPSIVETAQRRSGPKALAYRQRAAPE
Experimental: The selected compounds were tested for their ability to bind to MvfR. Target validation was carried out by using surface plasmon resonance (SPR). The MvfRC87 protein purified as in Xiao et. al., 2006[33] was covalently immobilized on a CM7 Series S sensor chip using an amine coupling reagent kit (GE Healthcare) at the range level of 3000 to 5000 response units (RU). RU was analyzed by Biacore T200 evaluation software 2.0 (GE Healthcare). The relative response units (RUs) 5 seconds before the end of the association were extracted from the double-reference-corrected sensor grams at different concentrations. These responses were plotted against their respective concentrations for MvfR inhibitor alone and in the presence of native MvfR ligand PQS and compared to the calculated responses for the mixture expected for different binding sites.

[3] = system: pyocyanin production in PA14; test: Pyocyanin production assay; conditions: Pseudomonas aeruginosa
[4] = system: pqsA promoter (PA14 PpqsA-GFPASV); test: pqsA-GFP reporter expression; assay type: cell-based, Pseudomonas aeruginosa
[5] = system: 16 MDR P. aeruginosa clinical isolates; test: Pyocyanin production in MDR clinical isolates; conditions: Pseudomonas aeruginosa, 18 h, Control about 100, replicates
Experimental: The over-day culture was grown to OD600nm 1.5., diluted again at 1:10,000 in 5 mL LB and incubated with 10 μM of the test compound or the vehicle control for 18 hours at 37 °C and 200 rpm in an incubator shaker. After 18 h, 1 mL of culture was centrifuged for 2 min at 20.000 x g. The supernatant was transferred to a new tube, 200 μL of this were loaded in a flat-bottom 96-well plate, and the pyocyanin levels were quantified by measuring at OD690nm in the infinite F200 plate reader using the Magellan software (Tecan, Switzerland). The same procedure was also followed for the pyocyanin production assessment for all the P. aeruginosa clinical isolates assessed in this study. The percent of pyocyanin was calculated compared to the PA14 culture grown in the absence of compounds.
Pyocyanin production was measured in 16 P.
aeruginosa clinical isolates 18hr post-growth in the presence or absence of 10 µM of each NAM
compound. The percent of pyocyanin production was calculated by comparing the same strain grown
in the presence of the vehicle control. b.

[6] = Solubility in iPBS pH 7.4 by HPLC; assay type: physicochemical; conditions: isotonic phosphate buffer (iPBS)
Experimental: Solubility of the 10 mM compounds dissolved in DMSO was tested in the isotonic phosphate buffer (iPBS) at pH 7.4 using High-Performance Liquid Chromatography (HPLC). For the preparation of iPBS phosphate-buffered saline tab (Sigma-Aldrich 08057-12Tab-F) is dissolved in 500 mL of deionized water and the final composition of the solution contains 10 mM PBS, 2.7 mM KCl, 140 mM NaCl and 0.05% Tween. A total 10 µL of the compound from a 10 mM stock solution in DMSO was added to the vial, and 190 µL of buffer was added to each vial and mixed with shaking at room temperature for 4 h. Thereafter the samples were filtered, and 160 µL of the sample was mixed with 40 µL of DMSO for the final injection. Ibuprofen (high solubility) and Progesterone (low Solubility) were used as standard compounds. Ammonium Acetate aqueous solution (50 mM, pH 7.4) and the acetonitrile were used as mobile phases A and B, respectively. The measurement of concentration was achieved by comparing of UV absorbance of the sample solution and the known standard solution following an HPLC separation using a generic fast gradient method. The solubility of each compound is expressed by the ratio of compound amount in the sample test solution to the amount of compound in the standard solution.

ΔmvfR biofilm = test: Biofilm formation of ΔmvfR mutant (off-target); conditions: Pseudomonas aeruginosa, PA14, 24 h, read-out: Biofilm formation, ΔmvfR + compound; PA14 about 100; single replicates (Figure 4c)

## N#Cc1ccc(NC(=O)C(F)C(=O)Nc2ccc(Oc3ccccc3)cc2)cc1 (stereo not shown) [D88]
[1]; Compound 4.88e-8 M
  2-AA: 20.87 and 7.96 and 12.86
  DHQ: 15.28 and 24.13 and 25.25
  HHQ: -10.38 and -9.83 and -4.34
  HQNO: 23.03 and 20.64 and 19.09
[1]; Compound 9.77e-8 M
  2-AA: 21.63 and 8.61 and -0.13
  DHQ: 23.53 and 26.23 and 29.13
  HHQ: 0.19 and 2.23 and -9.33
  HQNO: 18.24 and 19.63 and 16.60
  PQS: 1.00 and -2.02 and -4.38
[1]; Compound 1.95e-7 M
  2-AA: 4.17 and 23.60 and 8.88
  DHQ: 24.27 and 28.60 and 33.04
  HHQ: -0.13 and 9.98 and 9.62
  HQNO: 22.51 and 25.08 and 21.13
[1]; Compound 3.91e-7 M
  2-AA: 26.65 and 26.00 and 18.02
  DHQ: 19.73 and 32.57 and 33.17
  HHQ: 5.11 and 8.17 and 11.07
  HQNO: 30.53 and 30.32 and 29.72
  PQS: -1.07 and -0.58 and 0.13
[1]; Compound 7.81e-7 M
  2-AA: 26.65 and 26.00 and 18.02
  DHQ: 19.73 and 32.57 and 33.17
  HHQ: 5.11 and 8.17 and 11.07
  HQNO: 30.53 and 30.32 and 29.72
  PQS: -1.07 and -0.58 and 0.13
[1]; Compound 1.56e-6 M
  2-AA: 57.52 and 53.71 and 61.03
  DHQ: 42.56 and 47.41 and 47.02
  HQNO: 65.26 and 66.09 and 66.02
  PQS: 20.92 and 18.95 and 23.15
[1]; Compound 3.13e-6 M
  2-AA: 77.80 and 71.94 and 73.15
  DHQ: 23.18 and 25.25 and 33.98
  HHQ: 18.71 and 27.16 and 24.99
  HQNO: 83.76 and 83.46 and 82.00
  PQS: 64.68 and 63.03 and 59.62
[1]; Compound 6.25e-6 M
  2-AA: 94.51 and 93.72 and 94.23
  DHQ: 82.36 and 85.39 and 83.09
  HHQ: 97.83 and 98.02 and 97.82
  HQNO: 95.97 and 95.46 and 95.76
  PQS: 95.61 and 95.53 and 95.05
[1]; Compound 1.25e-5 M
  2-AA: 96.17 and 96.56 and 95.88
  DHQ: 89.15 and 89.66 and 90.01
  HHQ: 98.67 and 99.17 and 97.08
  HQNO: 97.36 and 97.63 and 97.60
  PQS: 98.30 and 97.73 and 97.38
[1]; Compound 2.5e-5 M
  2-AA: 96.54 (2×) and 95.16
  DHQ: 90.35 and 91.27 and 89.56
  HHQ: 99.13 (2×) and 96.58
  HQNO: 97.58 and 97.87 and 97.81
  PQS: 98.11 and 97.67 and 97.24
[1]; Compound 5e-5 M
  2-AA: 97.65 and 97.17 and 97.36
  DHQ: 92.04 and 92.63 and 92.02
  HHQ: 98.82 and 99.10 and 99.16
  HQNO: 98.11 and 98.35 and 97.80
  PQS: 97.51 and 97.36 and 96.79
[1]; Compound 1.25E-05 M
  AA: 599.608 and 615.624 and 726.139
[1]; Compound 1.56E-06 M
  AA: 43.3838 and 42.5844 and 52.2801
[1]; Compound 1.95E-07 M
  AA: 66.4944 and 66.9002 and 61.8554
[1]; Compound 2.50E-05 M
  AA: 648.607 and 690.995 and 748.985
[1]; Compound 3.13E-06 M
  AA: 37.3675 and 38.4724 and 34.81
[1]; Compound 4.88E-08 M
  AA: 60.2138 and 71.5203 and 96.3706
[1]; Compound 5.00E-05 M
  AA: 538.963 and 599.424 and 657.09
[1]; Compound 6.25E-06 M
  AA: 537.56 and 609.034 and 598.829
[1]; Compound 7.81E-07 M
  AA: 70.2961 and 63.8933 and 86.4668
[1]; Compound 9.77E-08 M
  AA: 72.0385 and 90.409 and 103.511
[1]; PA14, read-out: % Production 2-AA
  activity at 50 µM: 7%
[1]; PA14, read-out: % Production AA
  activity at 50 µM: 832%
[1]; PA14, read-out: % Production DHQ
  activity at 50 µM: 7%
[1]; PA14, read-out: % Production HHQ
  activity at 50 µM: 1%
[1]; PA14, read-out: % Production HQNO
  activity at 50 µM: 14%
[1]; PA14, read-out: % Production PQS
  activity at 50 µM: 4%
[1]; PA14, read-out: AA, dose-dependent production (IC50 curve)
  IC50: 4700 nM
[1]; PA14, read-out: HHQ production inhibition
  inhibition at 50 µM: 89 to 99%
[1]; PA14, read-out: HQNO production inhibition
  inhibition at 50 µM: 40 to 92%
[1]; PA14, read-out: IC50 against 2-AA production
  IC50: 1500 nM
[1]; PA14, read-out: IC50 against DHQ production
  IC50: 4140 nM
[1]; PA14, read-out: IC50 against HHQ production
  IC50: 3100 nM
[1]; PA14, read-out: IC50 against HQNO production
  IC50: 1300 nM
[1]; PA14, read-out: IC50 against PQS production
  IC50: 2100 nM
[1]; PA14, read-out: PQS production inhibition
  inhibition at 50 µM: 76 to 97%
[1]; PA14, read-out: inhibition of 2-AA production
  inhibition at 50 µM: 82 to 95%
[1]; PA14, read-out: inhibition of DHQ production
  inhibition at 50 µM: 82 to 96%
PA14 AT/P cells
  inhibition at 10 µM: ≥ 76%
[2]
  activity at 10 µM: 34.2%
MvfR protein (MvfRC87); Concentration 1.00E-05 M
  Response Unit (RU): 36.6 RU
MvfR protein (MvfRC87); Concentration 1.00E-06 M
  Response Unit (RU): 18.2 RU
MvfR protein (MvfRC87); Concentration 1.00E-07 M
  Response Unit (RU): 5.5 RU
MvfR protein (MvfRC87); Concentration 1.00E-08 M
  Response Unit (RU): 0.4 RU
MvfR protein (MvfRC87); Concentration 3.16E-06 M
  Response Unit (RU): 28.1 RU
MvfR protein (MvfRC87); Concentration 3.16E-07 M
  Response Unit (RU): 10.5 RU
MvfR protein (MvfRC87); Concentration 3.16E-08 M
  Response Unit (RU): 2.3 RU
[3]; PA14, 18 h, read-out: % Production Pyocyanin
  activity at 50 µM: 6%
[3]; PA14, read-out: IC50 pyocyanin production
  IC50: 530 nM
[4]; Pseudomonas aeruginosa, PA14, read-out: % Production pqsA-GFP
  activity at 50 µM: 2%
[4]; Pseudomonas aeruginosa, PA14, read-out: IC50 pqsA-GFP expression, PA14, 13 concentrations
  IC50: 1360 nM
[4]; read-out: IC50 pqsA-GFP expression, PA14, 13 concentrations
  IC50: 1310 nM
[5]; read-out: Pyocyanin production relative to Control, clinical isolate LGR-4325
  activity at 10 µM: 17.1%
[5]; read-out: Pyocyanin production relative to Control, clinical isolate LGR-4326
  activity at 10 µM: 8.91%
[5]; read-out: Pyocyanin production relative to Control, clinical isolate LGR-4327
  activity at 10 µM: 8.23%
[5]; read-out: Pyocyanin production relative to Control, clinical isolate LGR-4328
  activity at 10 µM: 27.7%
[5]; read-out: Pyocyanin production relative to Control, clinical isolate LGR-4330
  activity at 10 µM: 33.3%
[5]; read-out: Pyocyanin production relative to Control, clinical isolate LGR-4331 (first section, r117)
  activity at 10 µM: 12.7%
[5]; read-out: Pyocyanin production relative to Control, clinical isolate LGR-4331 (second section, r140)
  activity at 10 µM: 5.55%
[5]; read-out: Pyocyanin production relative to Control, clinical isolate LGR-4333
  activity at 10 µM: 10.5%
[5]; read-out: Pyocyanin production relative to Control, clinical isolate LGR-4343
  activity at 10 µM: 12.2%
[5]; read-out: Pyocyanin production relative to Control, clinical isolate LGR-4344
  activity at 10 µM: 12.7%
[5]; read-out: Pyocyanin production relative to Control, clinical isolate LGR-4348
  activity at 10 µM: 8.7%
[5]; read-out: Pyocyanin production relative to Control, clinical isolate LGR-4356
  activity at 10 µM: 10.8%
[5]; read-out: Pyocyanin production relative to Control, clinical isolate LGR-4362
  activity at 10 µM: 13.9%
[5]; read-out: Pyocyanin production relative to Control, clinical isolate LGR-4363
  activity at 10 µM: 17.7%
[5]; read-out: Pyocyanin production relative to Control, clinical isolate LGR-4364 (first section, r326)
  activity at 10 µM: 17.2%
[5]; read-out: Pyocyanin production relative to Control, clinical isolate LGR-4364 (second section, r349)
  activity at 10 µM: 19.4%
[6]; aqueous with cosolvent or surfactant or cyclodextrin, kinetic from dmso stock, iPBS pH 7.4, HPLC, read-out: Solubility (M) in PBS
  solubility at 4 h: 0.00049 M (≈ 191 µg/mL)
[6]; pH 7.4, HPLC, read-out: solubility
  solubility at 4 h: 0.00049 M (≈ 191 µg/mL)
ΔmvfR biofilm
  activity at 10 µM: 43.6%
